Experimental data from patent US10842806B2, “Methods for treating ocular inflammatory disorders” (Massachusetts Eye and Ear Infirmary, priority 2011, dated 2020).

Columns and labels:
Type in all cases: in vivo, Lewis rats
[1] = test system: endotoxin-induced uveitis (EIU); experiment: Clinical scoring of EIU by slit lamp examination; conditions: for EIU clinical inflammation score: 24 h after LPS, scale 0-4, mean±SD, PBS-treated EIU 3.6±0.7; for EIU clinical score: no suppression vs controls
Excerpt: Endotoxin-induced uveitis (EIU) is a rodent model of human uveitis, induced by a single systemic injection of endotoxin or lipopolysaccharide (LPS) (Rosenbaum et al., (1980) NATURE 286:611-613). Injected animals develop acute bilateral anterior inflammation, characterized by a breakdown of the blood-ocular barrier and accumulation of inflammatory cells. EIU has been used to investigate the pathogenesis of uveitis and to evaluate the therapeutic effect of several drugs (Herbort et al. (1989) EXP. EYE RES. 48:693-705; Avunduk et al. (2004) EXP. EYE RES. 79:357-365; Chang et al. (2006) BR. J. OPHTHALMOL. 90:103-108; Wakefield et al. (2010) BR. J. OPHTHALMOL. 94:271-274). The effect of AICAR on ocular inflammation associated with uveitis was assessed using the EIU rat model. Male Lewis rats ranging from 6-8 weeks old (Charles River, Wilmington, Mass.) were used for these studies. To study the effects of AICAR pretreatment, AICAR and PBS (for placebo treatment) were delivered via intraperitoneal injection of AICAR (50 mg/kg or 100 mg/kg body weight; Sigma) diluted in 150 μl PBS or equal volume of PBS at 6 hours before and at the same time as LPS injection. Four experimental groups of rats were compared: (1) Normal: no treatment (2) AICAR: normal rats treated with AICAR 6 hours before examination; (3) LPS: EIU rats treated with PBS; (4) LPS+AICAR: EIU rats treated with AICAR. Two additional groups of rats were used to study the effects of AICAR (50 mg/kg) given either at the same time as LPS injection or at 6 hours after LPS injection. Clinical scoring of EIU was performed as previously described (Pouvreau et al. (1998) J. NEUROIMMUNOL. 86:171-181). Slit lamp examination was conducted 24 hours after LPS injection in a masked fashion. The severity of EIU was graded from 0 to 4 by a masked investigator, using the following scale: 0=no inflammatory reaction; 1=discrete inflammation of the iris and conjunctival vessels; 2=dilation of the iris and conjunctival vessels with moderate flare in the anterior chamber; 3=hyperemia in iris associated with Tyndall effect in the anterior chamber; and 4=same clinical signs as 3 plus the presence of fibrin or synechiae.

[2] = test system: endotoxin-induced uveitis (EIU); experiment: Cell count and total protein concentration in aqueous humor of EIU rats
Method: Male Lewis rats ranging from 6-8 weeks old (Charles River, Wilmington, Mass.) were used for these studies. To study the effects of AICAR pretreatment, AICAR and PBS (for placebo treatment) were delivered via intraperitoneal injection of AICAR (50 mg/kg or 100 mg/kg body weight; Sigma) diluted in 150 μl PBS or equal volume of PBS at 6 hours before and at the same time as LPS injection. Four experimental groups of rats were compared: (1) Normal: no treatment (2) AICAR: normal rats treated with AICAR 6 hours before examination; (3) LPS: EIU rats treated with PBS; (4) LPS+AICAR: EIU rats treated with AICAR. Two additional groups of rats were used to study the effects of AICAR (50 mg/kg) given either at the same time as LPS injection or at 6 hours after LPS injection. Aqueous humor was collected by anterior chamber puncture with a 30-gauge needle 24 hours after LPS injection. For cell counting, 1 μl of aqueous humor was diluted with an equal amount of Trypan-blue solution, and the cells were counted with a hematocytometer under a light microscope. A separate sample of aqueous humor was centrifuged at 2500 rpm for 5 minutes at 4° C. and the total protein concentration was measured by Lowry methods using a Bio-Rad protein assay kit (Hercules, Calif.). Aqueous samples were stored on ice until used; cell counts and total protein concentrations were measured on the day of sample collection.

retinal vessels = experiment: Protein leakage from retinal vessels (biotinylated BSA assay); conditions: AICAR-pretreated EIU rats, 24 h after LPS; n=8; EIU rats 30.5±21.2
Method: Male Lewis rats ranging from 6-8 weeks old (Charles River, Wilmington, Mass.) were used for these studies. To study the effects of AICAR pretreatment, AICAR and PBS (for placebo treatment) were delivered via intraperitoneal injection of AICAR (50 mg/kg or 100 mg/kg body weight; Sigma) diluted in 150 μl PBS or equal volume of PBS at 6 hours before and at the same time as LPS injection. Four experimental groups of rats were compared: (1) Normal: no treatment (2) AICAR: normal rats treated with AICAR 6 hours before examination; (3) LPS: EIU rats treated with PBS; (4) LPS+AICAR: EIU rats treated with AICAR. Two additional groups of rats were used to study the effects of AICAR (50 mg/kg) given either at the same time as LPS injection or at 6 hours after LPS injection. Protein leakage from retinal vessels was assessed with a biotinylated bovine serum albumin (bBSA) assay as previously described (Trichonas et al. (2010) INVEST. OPHTHALMOL. VIS. SCI. 51:1677-1682). At 23 hours after LPS injection, rats were anesthetized and 0.14 ml of 43.7 mg/ml bBSA (Santa-Cruz Biotechnology, Santa Cruz, Calif.) was injected through the femoral vein. After one hour, the chest cavities of rats were opened, and the rats were perfused with lactated Ringer's solution via the left ventricle for 6 minutes. […] Supernatant was collected, and bBSA concentration was measured by enzyme-linked immunosorbent assay (ELISA). […]

`NC(=O)c1ncn([C@@H]2O[C@H](CO)[C@@H](O)[C@H]2O)c1N` [AICAR, 5-aminoimidazole-4-carboxamide-1-β-d-ribofuranoside] was tested, and the “EIU clinical inflammation score” value ([1]; AICAR 50 mg/kg i.p. 6 h before and at same time as LPS, n=15) was 2.2±0.75, the “EIU clinical inflammation score” value ([1]; AICAR 100 mg/kg i.p. 6 h before and at same time as LPS, n=12) was 2.7±1.4 and the “Fibrin formation and posterior synechiae” value ([1]; AICAR-pretreated EIU animals vs PBS-treated EIU rats) was “rarely seen”. For the same compound, the “Inflammation in normal rats that received AICAR alone” value ([1]; age-matched normal rats, no LPS, n=6) was “No inflammation was detected”, the EIU clinical score ([1]; single dose AICAR 50 mg/kg at 6 hours after LPS injection, n=6) was 3.9±0.2 and the EIU clinical score ([1]; single dose AICAR 50 mg/kg at the time of LPS injection, n=6) was 3.7±0.5. The “Total protein concentration in aqueous humor” value ([2]; AICAR 50 mg/kg pretreatment, 24 h after LPS, LPS only 18.3) was 7.9 mg/mL, the “Number of infiltrating cells in aqueous humor” value ([2]; AICAR 50 mg/kg pretreatment, 24 h after LPS, n=11, LPS only 22.0×10^5) was 1.4×10^5 cells/ml and the “Cell infiltration and protein levels in aqueous humor of AICAR-only-treated rats” value ([2]; normal rats, AICAR only, n=6) was “did not show any significant infiltration of cells nor a significant increase in protein levels”. For the same compound, the “Protein leakage from retinal vessels (bBSA)” value (retinal vessels) was 11.2±7.2 ng/mg total retinal protein.
